Test system: E. coli BL21 transformed with pET28_CHI_ΔLid and pET22_ERED
Test: Whole-cell biocatalysis of naringin
Type: cell-based
Settings: 150 μM naringin, cell suspension OD=150 in 20 mM TRIS-HCl pH 7.5, gassed with nitrogen, 23° C., 900 rpm, 22 h
Experimental: After successful cloning the plasmid pET28_CHI_ΔLid (FIG. 1) together with the plasmid pET22_ERED was transformed into E. coli BL21.
200 mL LBkan, amp were inoculated with 1% (v/v) of an overnight culture and grown at 37° C. to an OD≥1. The induction of the expression was then carried out with 0.1 mM IPTG. The expression of the protein was carried out for 21 h at 20° C.
After the harvesting of the cells these were normalised with 20 mM TRIS-HCl pH 7.5 to an OD=150. For the implementation of the biocatalyses in each case 490 μL of the cell suspension was added with 10 μL naringin solution (stock solution: 7.5 mM naringin dissolved in 1,2-propylene glycol; final concentration: 150 μM) to a 2 mL Eppendorf reaction vessel and gassed with nitrogen. The biocatalyses were carried out at 23° C., 900 rpm and 22 h. The extraction of the substrates was carried out twice with ethyl acetate.

## C[C@@H]1O[C@@H](O[C@H]2[C@H](Oc3cc(O)c4c(c3)O[C@H](c3ccc(O)cc3)CC4=O)O[C@H](CO)[C@@H](O)[C@@H]2O)[C@H](O)[C@H](O)[C@H]1O [naringin]
  conversion of the naringin: 65%
